Like-named read-outs stand apart in the source and are kept apart here.
Tests used:
[1] = molecular target: T1, HCV NS5B RdRp genotype 1b (Hepatitis C virus genotype 1b, UniProt Q9WMX2); assay: Standard HCV NS5B RdRp enzyme assay; format: biochemical
T1 construct: The protein was expressed with an 18 amino acid C-terminal truncation to enhance the solubility; made in house; host or cells: E. coli BL21(DE3), pET21a vector
Protocol: HCV NS5B RdRp cloning, expression, and purification. The cDNA encoding the NS5B protein of HCV, genotype 1b, was cloned into the pET21a expression vector. The protein was expressed with an 18 amino acid C-terminal truncation to enhance the solubility. The E. coli competent cell line BL21(DE3) was used for expression of the protein. Cultures were grown at 37° C. for ˜4 hours until the cultures reached an optical density of 2.0 at 600 nm. The cultures were cooled to 20° C. and induced with 1 mM IPTG. Fresh ampicillin was added to a final concentration of 50 μg/ml and the cells were grown overnight at 20° C.
Cell pellets (3 L) were lysed for purification to yield 15-24 mgs of purified NS5B. The lysis buffer consisted of 20 mM Tris-HCl, pH 7.4, 500 mM NaCl, 0.5% triton X-100, 1 mM DTT, 1 mM EDTA, 20% glycerol, 0.5 mg/ml lysozyme, 10 mM MgCl2, 15 ug/ml deoxyribonuclease I, and Complete TM protease inhibitor tablets (Roche). After addition of the lysis buffer, frozen cell pellets were resuspended using a tissue homogenizer. To reduce the viscosity of the sample, aliquots of the lysate were sonicated on ice using a microtip attached to a Branson sonicator. The sonicated lysate was centrifuged at 100,000×g for 1 hr at 4° C. and filtered through a 0.2 μm filter unit (Corning).
The protein was purified using three sequential chromatography steps: Heparin sepharose CL-6B, polyU sepharose 4B, and Hitrap SP sepharose (Pharmacia). The chromatography buffers were identical to the lysis buffer but contained no lysozyme, deoxyribonuclease I, MgC12 or protease inhibitor and the NaCl concentration of the buffer was adjusted according to the requirements for charging the protein onto the column. Each column was eluted with a NaCl gradient which varied in length from 5-50 column volumes depending on the column type. After the final chromatography step, the resulting purity of the enzyme is >90% based on SDS-PAGE analysis. The enzyme was aliquoted and stored at −80° C.
Standard HCV NS5B RdRp enzyme assay. HCV RdRp genotype 1b assays were run in a final volume of 60 μl in 96 well plates (Costar 3912). The assay buffer composed of 20 mM Hepes, pH 7.5, 2.5 mM KCl, 2.5 mM MgCl2, 1 mM DTT, 1.6 U RNAse inhibitor (Promega N2515), 0.1 mg/ml BSA (Promega R3961), and 2% glycerol. All compounds were serially diluted (3-fold) in DMSO and diluted further in water such that the final concentration of DMSO in the assay was 2%. HCV RdRp genotype 1b enzyme was used at a final concentration of 28 nM. A polyA template was used at 6 nM, and a biotinylated oligo-dT12 primer was used at 180 nM final concentration. Template was obtained commercially (Amersham 27-4110). Biotinylated primer was prepared by Sigma Genosys. 3H-UTP was used at 0.6 μCi (0.29 μM total UTP). Reactions were initiated by the addition of enzyme, incubated at 30° C. for 60 min, and stopped by adding 25 μl of 50 mM EDTA containing SPA beads (4 μg/μl, Amersham RPNQ 0007). Plates were read on a Packard Top Count NXT after >1 hr incubation at room temperature.
IC50 values for compounds were determined using seven different [I]. IC50 values were calculated from the inhibition using the formula y=A+((B−A)/(1+((C/x)^D))).

HCV replicon cells = assay: HCV replicon FRET / luciferase assay (96-well plates); format: cell-based; settings: Hepatitis C virus
Outline: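 HCV replicon cells (with or without Renilla luciferase reporter) were plated with titrated compounds at 37 °C. After Alamar blue toxicity reading, cells were lysed in reagent containing 20 μM EDANS/DABCYL NS3 protease FRET peptide and 150 mM NaCl, read kinetically at 340/490 nm, or assayed by Dual-Glo luciferase.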

[2] = Table 1a, HCV NS5B RdRp genotype 1b, read-out: IC50
[3] = Table 1a, HCV replicon, read-out: EC50
[4] = Table 1b, HCV NS5B RdRp genotype 1b, read-out: IC50

T1 sequence (Q9WMX2 2420-2992): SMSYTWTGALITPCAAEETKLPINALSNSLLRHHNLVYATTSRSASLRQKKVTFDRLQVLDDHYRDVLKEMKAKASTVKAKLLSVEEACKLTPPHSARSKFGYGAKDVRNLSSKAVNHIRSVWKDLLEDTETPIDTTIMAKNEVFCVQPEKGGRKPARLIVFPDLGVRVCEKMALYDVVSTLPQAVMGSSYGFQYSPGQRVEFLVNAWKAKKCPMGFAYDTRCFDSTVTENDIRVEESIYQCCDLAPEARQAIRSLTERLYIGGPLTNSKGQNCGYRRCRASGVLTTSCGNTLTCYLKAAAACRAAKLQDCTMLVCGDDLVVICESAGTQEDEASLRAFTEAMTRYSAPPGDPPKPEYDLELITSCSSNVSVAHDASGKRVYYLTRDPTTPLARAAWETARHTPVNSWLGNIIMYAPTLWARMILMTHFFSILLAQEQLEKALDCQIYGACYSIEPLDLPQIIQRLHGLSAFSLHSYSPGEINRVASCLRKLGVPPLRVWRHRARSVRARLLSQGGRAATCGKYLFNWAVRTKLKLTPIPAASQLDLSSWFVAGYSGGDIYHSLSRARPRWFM

SMILES | IC50 [1, 2] | EC50 (HCV replicon cells; [3]) | also measured
CNC(=O)c1c(-c2ccc(F)cc2)oc2ccc(-c3cccc(C(=O)NCC(C)C)c3)cc12 | < 250 nM | < 250 nM | 
CCCNC(=O)c1cccc(-c2ccc3oc(-c4ccc(F)cc4)c(C(=O)NC)c3c2)c1 | < 250 nM | < 250 nM | 
CNC(=O)c1c(-c2ccc(F)cc2)oc2ccc(-c3cccc(C(=O)NC(C)(C)C)c3)cc12 | < 250 nM | < 250 nM | 
CNC(=O)c1c(-c2ccc(F)cc2)oc2ccc(-c3cccc(C(=O)NC(C)(C)C(=O)OC)c3)cc12 | < 250 nM | < 250 nM | 
CNC(=O)c1c(-c2ccc(F)cc2)oc2ccc(-c3cccc(C(=O)N[C@H]4C[C@@H]4c4ccccc4)c3)cc12 | > 400 nM | < 250 nM | 
CNC(=O)c1c(-c2ccc(F)cc2)oc2ccc(-c3cccc(C(=O)N[C@@H](C)c4cccc(OC)c4)c3)cc12 | < 250 nM | < 250 nM | 
CNC(=O)c1c(-c2ccc(F)cc2)oc2ccc(-c3cc(C(=O)NCC(C)C)ccc3O)cc12 | < 250 nM | < 250 nM | 
C#CC(C)(C)NC(=O)c1cccc(-c2ccc3oc(-c4ccc(F)cc4)c(C(=O)NC)c3c2)c1 | < 250 nM | < 250 nM | 
CNC(=O)c1c(-c2ccc(F)cc2)oc2ccc(-c3cccc(C(=O)NC(C)(C)CO)c3)cc12 | < 250 nM | < 250 nM | 
CNC(=O)c1c(-c2ccc(F)cc2)oc2ccc(-c3cccc(C(=O)NC(C)(C)C(F)(F)F)c3)cc12 | < 250 nM | < 250 nM | 
CNC(=O)c1c(-c2ccc(F)cc2)oc2ccc(-c3cccc(C(=O)NC(C)(C)CC(C)(C)C)c3)cc12 | 250 to 1000 nM | < 250 nM | 
CCC(C)(C)NC(=O)c1cccc(-c2ccc3oc(-c4ccc(F)cc4)c(C(=O)NC)c3c2)c1 | < 250 nM | < 250 nM | 
CNC(=O)c1c(-c2ccc(F)cc2)oc2ccc(-c3cccc(C(=O)NC4(c5ccc(F)cc5)CC4)c3)cc12 | < 250 nM | < 250 nM | 
CNC(=O)c1c(-c2ccc(F)cc2)oc2ccc(-c3cccc(C(=O)NC4(c5ccccn5)CC4)c3)cc12 | < 250 nM | < 250 nM | 
CNC(=O)c1c(-c2ccc(F)cc2)oc2ccc(-c3cccc(C(=O)NC(C)(C)Cc4ccc(F)cc4)c3)cc12 | 250 to 1000 nM | < 250 nM | 
CNC(=O)c1c(-c2ccc(F)cc2)oc2ccc(-c3cccc(C(=O)NC(C)(C)c4ccc(OC)cc4)c3)cc12 | < 250 nM | < 250 nM | 
CNC(=O)c1c(-c2ccc(F)cc2)oc2ccc(-c3ccc(-c4ccccc4)c(C(=O)NC(C)(C)c4ccccc4)c3)cc12 | < 250 nM | < 250 nM | 
CNC(=O)c1c(-c2ccc(F)cc2)oc2cc([N+](=O)[O-])c(-c3cccc(C(=O)NC(C)(C)c4ccccc4)c3)cc12 | < 250 nM | < 250 nM | 
CNC(=O)c1c(-c2ccc(F)cc2)oc2ccc(-c3cccc(C(=O)NC(C)(C)c4ccccc4)c3)c([N+](=O)[O-])c12 | < 250 nM | < 250 nM | 
CNC(=O)c1c(-c2ccc(F)cc2)oc2cc([N+](=O)[O-])c(-c3cccc(C(=O)NC4(c5ccccc5)CC4)c3)cc12 | < 250 nM | < 250 nM | 
CNC(=O)c1c(-c2ccc(F)cc2)oc2ccc(-c3cccc(C(=O)NC(C)(C)c4ccccc4)c3)c(N)c12 | < 250 nM | < 250 nM | 

SMILES | IC50 [1, 2] | EC50 (HCV replicon cells; [3]) | also measured
CNC(=O)c1c(-c2ccc(F)cc2)oc2cc(NS(C)(=O)=O)c(-c3cccc(C(=O)NC(C)(C)c4ccccc4)c3)cc12 | < 250 nM | < 250 nM | 
CNC(=O)c1c(-c2ccc(F)cc2)oc2ccc(-c3cccc(C(=O)Nc4ccccc4-c4ccccc4)c3)cc12 | 1000 to 10000 nM | < 250 nM | 
CNC(=O)c1c(-c2ccc(F)cc2)oc2cc(N(CCO)S(C)(=O)=O)c(-c3cccc(C(=O)NC(C)(C)c4ccccc4)c3)cc12 | < 250 nM | < 250 nM | 
CNC(=O)c1c(-c2ccc(F)cc2)oc2ccc(-c3cccc(C(=O)NC(C)(C)C(=O)N(C)C)c3)cc12 | < 250 nM | < 250 nM | 
CNC(=O)c1c(-c2ccc(F)cc2)oc2cc(N)c(-c3cccc(C(=O)NC4(c5ccccc5)CC4)c3)cc12 | < 250 nM | < 250 nM | 
CNC(=O)c1c(-c2ccc(F)cc2)oc2ccc(-c3cccc(-c4nnc(C(C)C)o4)c3)cc12 | < 250 nM | < 250 nM | 
CNC(=O)c1c(-c2ccc(F)cc2)oc2ccc(-c3cc(C(=O)NCC(C)C)ccc3F)cc12 | < 250 nM | < 250 nM | 
CNC(=O)c1c(-c2ccc(F)cc2)oc2ccc(-c3cccc(C(=O)NC(C)(C)C(=O)NC)c3)cc12 | < 250 nM | < 250 nM | 
CNC(=O)c1c(-c2ccc(F)cc2)oc2ccc(-c3cccc(C(=O)NC(C)(C)C(=O)Nc4nccs4)c3)cc12 | < 250 nM | < 250 nM | 
CNC(=O)c1c(-c2ccc(F)cc2)oc2ccc(-c3cccc(C(=O)NC(C)(C)C(=O)NCC(F)F)c3)cc12 | < 250 nM | < 250 nM | 
CNC(=O)c1c(-c2ccc(F)cc2)oc2ccc(-c3cc(C(=O)CCC(C)C)ccc3OCCN(C)C)cc12 | < 250 nM | < 250 nM | 
CNC(=O)c1c(-c2ccc(F)cc2)oc2ccc(-c3cn[nH]c3)cc12 | > 10000 nM | 250 to 1000 nM | 
CNC(=O)c1c(-c2ccc(F)cc2)oc2ccc(-c3ccc(OCC(C)C)cc3)cc12 | > 10000 nM | > 400 nM | 
CNC(=O)c1c(-c2ccc(F)cc2)oc2ccc(-c3cc(OC)ncc3F)cc12 | > 10000 nM | > 620 nM | 
CNC(=O)c1c(-c2ccc(F)cc2)oc2ccc(-c3ccc(NC(=O)OC(C)(C)C)cc3)cc12 | > 10000 nM | > 400 nM | 
CNC(=O)c1c(-c2ccc(F)cc2)oc2ccc(-c3cccc(C(=O)N4C5CCC4CN(C)C5)c3)cc12 |  |  | IC50 [1]: 1000 to 10000 nM; EC50 (HCV replicon cells): 1000 to 10000 nM
CNC(=O)c1c(-c2ccc(F)cc2)oc2ccc(-c3cccc(C(=O)NC4CN5CCC4CC5)c3)cc12 (stereo not shown) |  |  | IC50 [1]: 1000 to 10000 nM; EC50 (HCV replicon cells): 1000 to 10000 nM
CNC(=O)c1c(-c2ccc(F)cc2)oc2ccc(-c3cc(C(=O)NC4(C(=O)OC)CC4)c(O)cc3Cl)cc12 |  |  | IC50 [1, 4]: 250 to 1000 nM
CNC(=O)c1c(-c2ccc(F)cc2)oc2ccc(-c3cc(C(=O)NC4(C(=O)O)CC4)c(O)cc3Cl)cc12 |  |  | IC50 [1, 4]: 250 to 1000 nM
CNC(=O)c1c(-c2ccc(F)cc2)oc2ccc(-c3cc(C(=O)NC4(c5cccc(C)n5)CC4)c(OC)cc3C)cc12 |  |  | IC50 ([1]; Table 1d (class symbols), HCV NS5B RdRp genotype 1b, read-out: IC50): 1 to 250 nM
